# Results from patent US8956824B2, “Methods for identifying allosteric modulators of ship polypeptides” (British Columbia Cancer Agency Branch, priority 2006, dated 2015).
# “Also recorded” adds a separate entry of the source.
# Biological target: T1, SHIP1 C2 domain (Mus musculus, UniProt Q9ES52)
# T1 construct: Recombinant SHIP1 C2 domain (amino acid residues 725 to 863); made in house; host or cells: E. coli, pET28C
# T1 sequence (Q9ES52 725-863): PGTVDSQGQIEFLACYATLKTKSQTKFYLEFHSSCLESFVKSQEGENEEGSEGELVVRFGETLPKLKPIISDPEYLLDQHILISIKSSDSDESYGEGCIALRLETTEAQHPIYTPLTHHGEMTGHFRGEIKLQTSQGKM
# Test: Protein lipid overlay assay, C2 domain
# Type: binding
# Conditions: 200 μM AQX-MN100, 30 min pre-incubation
# Method: Protein Lipid Overlay Assays Protein Lipid Overlay assays were performed essentially as described (23) with minor modifications. Lyophilized phosphatidylinositol-3,4-bisphosphate diC16 (PIP2, Echelon Biosciences, Salt Lake City, Utah) was reconstituted in a 2:1.8 solution of methanol and water. PVDF membranes (Millipore, Missisauga, Ont) were initially wetted in methanol for 1 minute, and washed 3×5 min with water, and gently agitated in TBST buffer (20 mM Tris pH 7.5, 0.15 M NaCl (TBS) with 0.05% Tween 20) at 23° C. overnight. The treated membranes were air-dried and dilutions of reconstituted lipids were spotted in 1 μl aliquots to give the indicated amount of PIP2 per membrane spot. The membranes were dried completely and blocked with blocking buffer (3% BSA in TBS with 0.05% NaN3) for 1 h at 23° C. on a gentle shaker. Purified, recombinant C2 domain was diluted into blocking buffer (5 μM final) and treated with 200 μM AQX-MN100 or EtOH control for 30 min at 23° C. prior to overnight incubation with the PIP2 spotted membranes. The membranes were washed 10 times over 50 min in TBST buffer at 23° C. and were incubated with anti-His6 mouse IgG (Qiagen, Missisauga, Ont) for 1 hour at 23° C. with gentle rocking. […] The membranes were washed 3 times in TBST over 15 min at 23° C. and the bound proteins were detected and quantified on a Li-Cor Odyssey scanner (Lincoln, Nebr.). […]
structure (smiles),measurement,value
Cc1cc(O)cc2c1[C@]1(C)CC[C@H]3C(C)(C)CCC[C@]3(C)[C@H]1C2 [AQX-MN100],"inhibition of C2 domain binding to phosphatidylinositol lipid (PI-3,4-P2 / PIP3)","could compete with PI-3,4-P2 for binding; also recorded: inhibits the binding of the C2; also recorded: is inhibited"
